Assay results reported in patent US12213957B2, “Use of aminoacetonitrile compounds for the treatment of infection and disease” (PITNEY PHARMACEUTICALS PTY LIMITED, priority 2020, dated 2025).
Where “and” joins values, the source holds several entries; their conditions need not be identical. Equal entries are not always repeated. Where two headings read alike, the source gives them in different places.

Columns and labels:
SARS-CoV-2 [1] = type: cell-based; conditions: Calu-3 human cells, concentrations from 3.00 μM down to 0.013 μM
SARS-CoV-2 [2] = type: cell-based
CHO cells = conditions: no virus, read-out: CHO and cell 1050 values for MPLS treatment alone; cited from earlier work
[3] = Blood plasma levels in pet dogs of the veterinary trial; type: in vivo, dog; conditions: pet dogs, monepantel 179 mg/kg bw daily; one value per dog
Method: In a Phase 2 veterinary clinical trial, monepantel was administered as tablets daily to six pet dog patients (dog identification numbers: 001-001, 001-002, 001-003, 003-001, 004-002 and 004-003) with treatment naïve B cell lymphoma at a target dose of 179 mg/kg bw. Superficial tumour lesions were measured with calipers, while lesions within the body were assessed by X-Ray, ultrasound, computer tomography (CT) and/or physical palpitation. Baseline Day 0 (D0) predose caliper, X-Ray, ultrasound and CT measurements where available as well as a complete physical examination were recorded.
An inverse correlation between RECIST1.1 response and blood plasma levels of monepantel and monepantel sulfone was evident. The one dog (003-001) that achieved a partial response, recorded monepantel and […] of 0.1 and 6.7 μM, respectively.

[4] = Blood plasma levels in human patients; type: in vivo; conditions: monepantel as Zolvix 5 mg/kg bw daily
Method: In a Phase 1 b clinical trial, monepantel administered as Zolvix daily to four human patients (PA02, PA04, PA06 and PA07) at 5 mg/kg bw provided an anticancer effect by computerised tomography (CT) scanning according to RECIST1.1 criteria. […] Evidence of mTOR pathway signalling inhibition in these patients was supported by the finding of decreased eurkaryotic translation initiation factor 4E-binding protein 1 (EIF-4EBP1) phosphorylation levels from the preparations of PBMCs from PA02, PA04 and PA06 (FIG. 1B). EIF-4EIBP1 phosphorylation levels were not assayed from preparations of PBMCs from PA07.
Blood plasma monepantel and monepantel sulfone levels of all four patients were recorded at intervals throughout treatment (Table 2).

[5] = system: VERO cells infected with SARS-CoV-2; type: cell-based; conditions: approximately 10 μM MPLS
SARS-CoV-2 [6] = type: cell-based; conditions: 40 μM and 8 μM compared to 0.064 μM, p<0.001

Compound: C[C@](C#N)(COc1cc(C#N)ccc1C(F)(F)F)NC(=O)c1ccc(S(=O)(=O)C(F)(F)F)cc1 [MPLS, monepantel sulfone]
- SARS-CoV-2 infectivity (TCID50) (SARS-CoV-2 [1]): reduced SARS-CoV-2 infectivity
- SARS-CoV-2 infectivity (TCID50, repeat experiment) compared to no treatment (SARS-CoV-2 [2]; MPLS 11.11 μM (highest concentration), VERO cells): significantly reduces SARS-CoV-2 infectivity
- pathogenicity of VERO cell culture media following infection (TCID50) (SARS-CoV-2 [2]; MPLS 8 and 40 μM, strong trend): reduce the pathogenicity
- IC50 (CHO cells): 74 µM
- toxic effect upon VERO cells infected with SARS-CoV-2 (LDH) (VERO cells): minimal toxic effect
- toxicity caused by SARS-CoV-2 (VERO cells): appeared to increase toxicity
- toxicity of VERO cells to SARS-CoV-2 infection (VERO cells): may slightly increase toxicity
- toxicity to VERO cells (VERO cells): no signs of toxicity
- toxicity to uninfected VERO cells (VERO cells): some toxicity
- SARS-CoV-2 toxicity (VERO cells; African green monkey): does not apparently increase SARS-CoV-2 toxicity
- Blood plasma Monepantel sulfone Day 24 [3]: 26.1 µM
- Blood plasma level of monepantel sulfone, Average ([4]; 0.25 h, average of patients): 0.00 ∞M
- Blood plasma level of monepantel sulfone ([4]; 0.25 h, individual patients): 0 ng/ml (3×) and 5.4 ng/ml
- Blood plasma level of monepantel sulfone, Average ([4]; 0.5 h, average of patients): 0.05 ∞M
- Blood plasma level of monepantel sulfone ([4]; 0.5 h, individual patients): 8.63 ng/mL and 37.5 ng/mL and 32.1 ng/mL and 13.1 ng/mL
- Blood plasma level of monepantel sulfone, Average ([4]; 1 h, average of patients): 0.29 ∞M
- Blood plasma level of monepantel sulfone ([4]; 1 h, individual patients): 65.5 ng/mL and 152 ng/mL and 252 ng/mL and 125 ng/mL
- Blood plasma level of monepantel sulfone, Average ([4]; 2 h, average of patients): 0.86 ∞M
- Blood plasma level of monepantel sulfone ([4]; 2 h, individual patients): 266 ng/mL and 482 ng/mL and 639 ng/mL and 360 ng/mL
- Blood plasma level of monepantel sulfone, Average ([4]; 4 h, average of patients): 1.77 ∞M
- Blood plasma level of monepantel sulfone ([4]; 4 h, individual patients): 1050 ng/mL and 663 ng/mL and 1140 ng/mL
- Blood plasma level of monepantel sulfone, Average ([4]; 8 h, average of patients): 1.13 ∞M
- Blood plasma level of monepantel sulfone ([4]; 8 h, individual patients): 637 ng/mL and 398 ng/mL and 689 ng/mL
- Blood plasma level of monepantel sulfone, Average ([4]; 12 h, average of patients): 0.68 ∞M
- Blood plasma level of monepantel sulfone ([4]; 12 h, individual patients): 276 ng/mL and 348 ng/mL and 351 ng/mL
- Blood plasma level of monepantel sulfone, Average ([4]; 24 h, average of patients): 0.45 ∞M
- Blood plasma level of monepantel sulfone ([4]; 24 h, individual patients): 179 ng/mL and 258 ng/mL and 214 ng/mL
- Blood plasma level of monepantel sulfone, Average ([4]; pre-dose D3, average of patients): 267.8 ng/ml and 0.53 ∞M
- Blood plasma level of monepantel sulfone ([4]; pre-dose D3, individual patients): 269 ng/mL and 240 ng/mL and 285 ng/mL and 277 ng/mL
- Blood plasma level of monepantel sulfone, Average ([4]; pre-dose D4, average of patients): 272.3 ng/ml and 0.54 ∞M
- Blood plasma level of monepantel sulfone ([4]; pre-dose D4, individual patients): 291 ng/ml (2×) and 231 ng/ml and 276 ng/ml
- Blood plasma level of monepantel sulfone, Average ([4]; pre-dose D5, average of patients): 238.3 ng/ml and 0.47 ∞M
- Blood plasma level of monepantel sulfone ([4]; pre-dose D5, individual patients): 233 ng/mL and 229 ng/mL and 250 ng/mL and 241 ng/mL
- Blood plasma level of monepantel sulfone, Average ([4]; pre-dose D6, average of patients): 214.3 ng/ml and 0.42 ∞M
- Blood plasma level of monepantel sulfone ([4]; pre-dose D6, individual patients): 232 ng/mL and 205 ng/mL and 216 ng/mL and 204 ng/mL
- Blood plasma level of monepantel sulfone, Average ([4]; pre-dose D7, average of patients): 205.0 ng/ml and 10.41 ∞M
- Blood plasma level of monepantel sulfone ([4]; pre-dose D7, individual patients): 215 ng/mL and 188 ng/mL and 235 ng/mL and 182 ng/mL
- Blood plasma level of monepantel sulfone, Average ([4]; pre-dose D14, average of patients): 148.0 ng/ml and 0.29 ∞M
- Blood plasma level of monepantel sulfone ([4]; pre-dose D14, individual patients): 158 ng/mL and 131 ng/mL and 154 ng/mL and 149 ng/mL
- Blood plasma level of monepantel sulfone, Average ([4]; pre-dose D21, average of patients): 147.0 ng/ml and 0.29 ∞M
- Blood plasma level of monepantel sulfone ([4]; pre-dose D21, individual patients): 157 ng/mL and 146 ng/mL and 138 ng/mL
- Blood plasma level of monepantel sulfone, Average ([4]; pre-dose D28, average of patients): 154.3 ng/ml and 0.31 ∞M
- Blood plasma level of monepantel sulfone ([4]; pre-dose D28, individual patients): 180 ng/mL and 162 ng/mL and 121 ng/mL
- concentration at 0.25 h ([4]; plasma, oral, 5 mg/kg bw, 0.25 h, average of patients, read-out: Blood plasma level of monepantel sulfone, Average): 1.4 ng/mL
- concentration at 0.5 h ([4]; plasma, oral, 5 mg/kg bw, 0.5 h, average of patients, read-out: Blood plasma level of monepantel sulfone, Average): 22.8 ng/mL
- concentration at 1 h ([4]; plasma, oral, 5 mg/kg bw, 1 h, average of patients, read-out: Blood plasma level of monepantel sulfone, Average): 149 ng/mL
- concentration at 2 h ([4]; plasma, oral, 5 mg/kg bw, 2 h, average of patients, read-out: Blood plasma level of monepantel sulfone, Average): 437 ng/mL
- concentration at 4 h ([4]; plasma, oral, 5 mg/kg bw, 4 h, average of patients, read-out: Blood plasma level of monepantel sulfone, Average): 896 ng/mL
- concentration at 4 h ([4]; plasma, oral, 5 mg/kg bw, 4 h, individual patients, read-out: Blood plasma level of monepantel sulfone): 732 ng/mL
- concentration at 8 h ([4]; plasma, oral, 5 mg/kg bw, 8 h, average of patients, read-out: Blood plasma level of monepantel sulfone, Average): 572 ng/mL
- concentration at 8 h ([4]; plasma, oral, 5 mg/kg bw, 8 h, individual patients, read-out: Blood plasma level of monepantel sulfone): 565 ng/mL
- concentration at 12 h ([4]; plasma, oral, 5 mg/kg bw, 12 h, average of patients, read-out: Blood plasma level of monepantel sulfone, Average): 346 ng/mL
- concentration at 12 h ([4]; plasma, oral, 5 mg/kg bw, 12 h, individual patients, read-out: Blood plasma level of monepantel sulfone): 409 ng/mL
- concentration at 24 h ([4]; plasma, oral, 5 mg/kg bw, 24 h, average of patients, read-out: Blood plasma level of monepantel sulfone, Average): 226 ng/mL
- concentration at 24 h ([4]; plasma, oral, 5 mg/kg bw, 24 h, individual patients, read-out: Blood plasma level of monepantel sulfone): 254 ng/mL
- protection against cell death following infection with SARS-CoV-2 [5]: almost completely protected VERO cell against cell death
- SARS-CoV-2 RNA concentration in the media (qPCR) (SARS-CoV-2 [6]): significantly decreased
